How the values were obtained:
[1] = tested on: ERK1 and ERK2 MAP kinases; assay: FGF2-stimulated MAP kinase phosphorylation, Western blot; format: cell-based
Procedure: Since activation of MAP kinases by FGF2 is one of the earliest mitogenic signaling events within cells (Maher), the effects of LO on FGF2-stimulated MAP kinase phosphorylation were tested by Western blot analysis using an antibody specific for phospho-extracellular signal-regulated kinases 1 and 2 (ERK1 and ERK2). The amount of total ERK1 and ERK2 MAP kinases within the same cell extracts was determined by using an antibody that recognizes both the phospho- and non-phospho-forms of ERK1 and ERK2. […] Cell extracts were prepared and equal amounts of proteins (25 μg) were analyzed by 10% SDS-PAGE. Immunoblotting was performed using antibodies specific for the active forms of ERK1 and ERK2 (A) and total ERKs (B).

[2] = tested on: growth-arrested Swiss 3T3 cells; assay: PDGF-AB-stimulated cell cycle progression, FACS analysis; format: cell-based
Procedure: Growth-arrested Swiss 3T3 cells were incubated for 20 h at 37° C. with or without PDGF-AB, LO, BAPN or their combinations as indicated. After incubation, FACS analysis was carried out to characterize the cell cycle progression under different conditions as described in FIG. 6. FIG. 20A represents a dose response of PDGF-AB in cell cycle progression. FIG. 20B represents the LO inhibition of PDGF-AB-stimulated cell cycle progression (the control represents cells treated with 15 ng ml^−1 PDGF-AB in the absence of added LO). FIG. 20C represents the effects of inactivation of LO by BAPN on PDGF-AB-stimulated the cell cycle progression. LO: 15 nM, PDGF-AB: 15 ng ml^−1, BAPN: 100 AM. Data represent the means (±sd) of three separate experiments each assessed with triplicate dishes.

[3] = tested on: transformed NIH 3T3 6-1 cells overexpressing FGF2; assay: LO inhibition of tumor cell growth (cell counting, phase-contrast and fluorescent microscopy); format: cell-based, mouse
Procedure: Transformed NIH 3T3 6-1 cells (2×10^4) overexpressing FGF2 were plated and incubated overnight in 35 mm-dishes containing 2 ml 10% fetal bovine serum (FBS)/Dulbecco's Modified Eagle's (DME) medium, and then refed with 0.3% FBS/DMEM with different treatment regimens as shown in FIGS. 9A and 9B. FIG. 9A represents a dose response. Cells were treated with LO at various doses for a total of 6 days. Cultures were refed with fresh media supplemented with LO, as indicated, every two days. After treatment, cells were harvested by trypsinization and counted with a hemacytometer. FIG. 9B represents the effects of inactivation of LO by BAPN on tumor cell growth. LO was present at 25 nM and BAPN at 200 μM as indicated. Data represent the means (±sd) of three separate experiments each assessed with triplicate dishes.
Numerical and morphological alterations in tumor cells treated with LO were observed under phase-contrast microscopy (25×). FIG. 10 comprises the following: A, control; B, 25 nM LO; C, 25 nM LO+200 μM BAPN; D, 200 μM BAPN alone; and E and F, LO uptake by NIH3T3 6-1 cells. In E and F, cells grown on coverslips were exposed to FITC-conjugated LO (0.16 μg/ml) for 2 h, then fixed and examined by fluorescent microscopy (100×).

VEC on Matrigel = assay: Angiogenic response of Tat-stimulated VEC on Matrigel; format: cell-based
Procedure: VEC grown on Matrigel, a solid gel of basement membrane proteins, rapidly align and form capillary-like structures providing a convenient in vitro model for angiogenesis studies (Albini et al., 1995; Grant et al.). Tat has been reported to enhance this in vitro morphogenesis of VEC consistent with its angiogenic property (Albini et al., 1995).
Cells (3×10^5) were plated on Matrigel-coated dishes. After 1 h incubation, various reagents were added to each culture. […] The following represents FIG. 15 phase-contrast microscopy: A, control; B, 10 ng ml^−1 Tat; C, 10 ng ml^−1 Tat+10 nM LO; D, 10 ng ml^−1 Tat+10 nM LO that was preincubated with 100 μM BAPN for 15 min at 370; E, 100 μM BAPN, alone, and F, 10 nM LO, alone.

[4] = tested on: human recombinant FGF2 (18 kDa); assay: LO-catalyzed crosslinking of 125I-labeled FGF2, SDS-PAGE and autoradiography; format: biochemical; conditions: 5 μg 125I-FGF2 with 4 μg LO, 37° C., 1 h
Procedure: To determine crosslinking of FGF2 monomers as a result of its oxidation by LO, human recombinant FGF2 (18 kDa) was iodinated and ^1251-labeled FGF2 (5 μg) and was then incubated with 4 μg of LO in 0.1 M sodium borate buffer, pH 8.2 in a final volume of 100 μl, at 37° C. for 1 h. The reaction was quenched by the addition of 100 μM BAPN followed by incubation at 37° C. for 30 min. Aliquots of the incubated reaction mixtures were analyzed by SDS-PAGE (15%) and autoradiography. Lane 1 represents [^125]FGF2; lane 2 represents [^1251]FGF2+LO. The relative electrophoretic mobilities of pre-stained molecular weight standards are indicated under MW.

Row | Molecule | effect on LO inhibition of FGF2 activation of MAP kinases ([1]; 5 ng/ml FGF2 + 10 nM LO + 100 μM BAPN) | state of phosphorylation of MAP kinases ([1]; 100 μM BAPN alone) | cell cycle progression relative to the level stimulated with PDGF-AB alone ([2]; 100 μM BAPN with LO 15 nM and 0.56 nM PDGF) | proliferation relative to the control ([3]; 200 μM BAPN added with 25 nM LO, 6 days) | tumor cell growth relative to the control ([3]; 200 μM BAPN in the absence of added LO, 6 days) | effect on LO-mediated inhibition of the angiogenic response (VEC on Matrigel; 10 nM LO preincubated with 100 μM BAPN for 15 min) | levels of phospho-MAP kinases ([1]; 5 ng/ml FGF2 and 10 nM LO, 10 min) | levels of phospho-ERK1/2 ([1]; 10 nM LO without BAPN or FGF2) | crosslinking of FGF2 monomers [4] | decrease of PDGF-AB-induced cell cycle progression ([2]; 15 nM (0.48 μg/ml) LO, 0.56 nM PDGF-AB) | decrease of cell number compared to the control (maximal inhibition) ([3]; 25 nM LO, 6 days, 0.3% FBS/DMEM) | numerical and morphological alterations in tumor cells ([3]; 25 nM LO, phase-contrast microscopy) | Tat-stimulated morphogenesis of VEC (VEC on Matrigel; 10 ng/ml Tat + 10 nM LO)
1 | N#CCCN [BAPN, β-Aminopropionitrile, reference compound] | abolished | did not affect | 100.4% | 3 fold | 2.5 fold | not prevented |  |  |  |  |  |  | 
2 | lysyl oxidase [LO] |  |  |  |  |  |  | reduced | slightly increased | induced the appearance of covalent dimers, oligomers and higher polymers | 73% | 95% | induced cell death | effectively blocked

Reference: patent publication US20030211076A1, “Compositions and methods for treatment of proliferative disorders” (priority 2003, published 2003)
